From patent US8062995B2, “Dioxazine-substituted arylamides” (Bayer CropScience AG, priority 2005, dated 2011)

Key:
[1] = tested on: Spodoptera frugiperda larvae; assay: Spodoptera frugiperda test (treatment by watering); assay type: in vivo; conditions: for Kill rate after 14d in %: 20 ppm, treatment by watering
Description: Spodoptera frugiperda Test Solvent: 7 parts by weight of dimethylformamide Emulsifier: 2 parts by weight of alkylaryl polyglycol ether To produce a suitable preparation of active compound, 1 part by weight of active compound is mixed with the stated amounts of solvent and emulsifier and the concentrate is diluted with water to the desired concentration. Maize plants (Zea mays) are watered with an active compound preparation of the desired concentration and infected with Spodoptera frugiperda larvae. After the desired period of time, the kill in % is determined. 100% means that all larvae have been killed; 0% means that none of the larvae have been killed.

[2] = tested on: green peach aphid (Myzus persicae); assay: Myzus test; oral; assay type: in vivo; conditions: for Kill rate after 5d in %: 100 ppm, oral
Description: Myzus Test; Oral Solvent: 80 parts by weight of acetone To produce a suitable preparation of active compound, 1 part by weight of active compound is mixed with the stated amounts of solvent and the concentrate is diluted with water to the desired concentration. Vessels are populated with all stages of the green peach aphid (Myzus persicae) which are treated by sucking the active compound preparation of the desired concentration. After the desired period of time, the activity in % is determined. 100% means that all aphids have been killed; 0% means that none of the aphids have been killed.

[3] = tested on: caterpillars of the army worm (Spodoptera frugiperda); assay: Spodoptera frugiperda test (SPODFR spray treatment); assay type: in vivo; conditions: for Kill rate after 7d in %: spray treatment
Description: Spodoptera frugiperda Test (SPODFR Spray Treatment) Solvents: 78 parts by weight of acetone • • 1.5 parts by weight of dimethylformamide Emulsifier: 0.5 part by weight of alkylaryl polyglycol ether To produce a suitable preparation of active compound, 1 part by weight of active compound is mixed with the stated amounts of solvents and emulsifier and the concentrate is diluted with emulsifier-containing water to the desired concentration. Discs of maize leaves (Zea mays) are sprayed with an active compound preparation of the desired concentration and after drying populated with caterpillars of the army worm (Spodoptera frugiperda). After the desired period of time, the activity in % is determined. 100% means that all of the caterpillars have been killed; 0% means that none of the caterpillars have been killed.

[4] = tested on: caterpillars of the diamondback moth (Plutella xylostella); assay: Plutella test (leaf dip); assay type: in vivo
Description: (§1) Plutella Test Solvent: 7 parts by weight of dimethylformamide Emulsifier: 2 parts by weight of alkylaryl polyglycol ether To produce a suitable preparation of active compound, 1 part by weight of active compound is mixed with the stated amounts of solvent and emulsifier and the concentrate is diluted with emulsifier-containing water to the desired concentration. Cabbages leaves (Brassica oleracea) are treated by being dipped into the active compound preparation of the desired concentration and populated with caterpillars of the diamondback moth (Plutella xylostella) while the leaves are still moist. After the desired period of time, the kill in % is determined. 100% means that all caterpillars have been killed; 0% means that none of the caterpillars have been killed.

[5] = tested on: caterpillars of the army worm (Spodoptera exigua); assay: Spodoptera exigua test (leaf dip); assay type: in vivo
Description: as §1, with “Spodoptera exigua” for “Plutella”, “Cabbage” for “Cabbages”, “army worm (Spodoptera exigua)” for “diamondback moth (Plutella xylostella)”

[6] = tested on: Spodoptera exigua, resistant strain; assay: Spodoptera exigua test; resistant strain; assay type: in vivo; conditions: for Kill rate after 7d in %: resistant strain
Description: Spodoptera exigua Test; Resistant Strain
Solvent: 7 parts by weight of dimethylformamide
Emulsifier: 2 parts by weight of alkylaryl polyglycol ether
To produce a suitable preparation of active compound, 1 part by weight of active compound is mixed with the stated amounts of solvent and emulsifier and the concentrate is diluted with emulsifier-containing water to the desired concentration.
Cabbage leaves (Brassica oleracea) are treated by being dipped into the active compound preparation of the desired concentration and populated with caterpillars of the army worm (Spodoptera exigua, resistant strain) while the leaves are still moist.
After the desired period of time, the kill in % is determined. 100% means that all caterpillars have been killed; 0% means that none of the caterpillars have been killed.

[7] = tested on: caterpillars of the cotton bollworm (Heliothis armigera); assay: Heliothis armigera test (leaf dip); assay type: in vivo
Description: as §1, with “Heliothis armigera” for “Plutella”, “Soya bean” for “Cabbages”, “(Glycine max.)” for “(Brassica oleracea)”, “cotton bollworm (Heliothis armigera)” for “diamondback moth (Plutella xylostella)”

[8] = tested on: larvae of the mustard beetle (Phaedon cochleariae); assay: Phaedon test (sprayed Chinese cabbage discs); assay type: in vivo
Description: (§2) Phaedon Test Solvents: 78 parts by weight of acetone • • 1.5 parts by weight of dimethylformamide Emulsifier: 0.5 part by weight of alkylaryl polyglycol ether To produce a suitable preparation of active compound, 1 part by weight of active compound is mixed with the stated amounts of solvents and emulsifier and the concentrate is diluted with emulsifier-containing water to the desired concentration. Discs of Chinese cabbage (Brassica pekinensis) are sprayed with an active compound preparation of the desired concentration and, after drying, populated with larvae of the mustard beetle (Phaedon cochleariae). After the desired period of time, the activity in % is determined. 100% means that all beetle larvae have been killed; 0% means that none of the beetle larvae have been killed.

[9] = logP determination by HPLC (reversed-phase C18), EEC Directive 79/831 Annex V.A8; assay type: physicochemical; conditions: HPLC reversed-phase C18, 43° C., acidic range pH 2.7
Description: The logP values given in the tables and Preparation Examples above are determined in accordance with EEC Directive 79/831 Annex V.A8 by HPLC (High Performance Liquid Chromatography) on a reversed-phase column (C 18). Temperature: 43° C. The determination by LC-MS in the acidic range is carried out at pH 2.7 using 0.1% aqueous formic acid and acetonitrile (contains 0.1% formic acid) as mobile phases; linear gradient from 10% acetonitrile to 95% acetonitrile. Calibration is carried out using unbranched alkan-2-ones (having 3 to 16 carbon atoms) with known logP values (determination of the logP values by the retention times using linear interpolation between two successive alkanones).

[10] = tested on: Diabrotica undecimpunctata; assay: Diabrotica undecimpunctata (DIABUN) test (eggs); assay type: in vivo
Description: Diabrotica undecimpunctata (DIABUN) Solvents: 1% of N-methylpyrrolidone (NMP) • 1% of diacetone alcohol Dye: brilliant sulphoflavin for staining the water To produce a suitable preparation of active compound, the active compound is mixed with the stated amounts of solvents and the concentrate is diluted with stained water to the desired concentration. The eggs (Diabrotica undecimpunctata) are treated with an active compound preparation of the desired concentration. After the desired period of time, the activity in % is determined. 100% means that all animals have been killed; 0% means that none of the animals have been killed.

[11] = tested on: green peach aphid (Myzus persicae); assay: Myzus test (MYZUPE spray treatment); assay type: in vivo; conditions: for Kill rate after 5d in %: 100 g/ha, spray treatment
Description: as §2, with “Myzus” for “Phaedon”, “Test (MYZUPE Spray Treatment)” for “Test”, “pekinensis), which are infested by all stages of the green peach aphid (Myzus persicae)” for “pekinensis)”, “concentration.” for “concentration and, after drying, populated with larvae of the mustard beetle (Phaedon cochleariae).”, “aphids” for “beetle larvae”

Structure (SMILES)	logP [9]	Kill rate after 14d in % [1]	activity in the Myzus test, oral (in words) [2]	activity in the Spodoptera frugiperda test, spray treatment (in words) [3]	activity in the Plutella test (in words) [4]	activity in the Spodoptera exigua test (in words) [5]	activity in the Spodoptera exigua test, resistant strain (in words) [6]	activity in the Heliothis armigera test (in words) [7]	activity in the Phaedon test (in words) [8]	Kill rate after 7d in % ([3]; 100 g/ha)	Kill rate after 7d in % ([8]; 100 g/ha)	activity in the Myzus test, spray treatment (in words) [11]	Kill rate after 5d in % [11]	Kill rate after 5d in % [2]	also measured
O=C(Nc1c(Cl)cc(Cl)cc1C1=NOCCO1)c1cc(C(F)(F)F)nn1-c1cccc(Cl)n1 [Example I-1-1]		95%	good activity	good activity	good activity	good activity	good activity	good activity	good activity						activity in the Spodoptera frugiperda test, watering (in words) [1]: good activity; Kill rate after 7d in % ([3]; 500 g/ha): 100%; Kill rate after 7d in % ([4]; 100 ppm): 100%; Kill rate after 7d in % ([5]; 20 ppm): 100%; Kill rate after 7d in % ([6]; 100 ppm): 100%; Kill rate after 7d in % ([7]; 20 ppm): 100%; Kill rate after 7d in % ([8]; 500 g/ha): 100%
Cc1cc(Cl)cc(C2=NOCCO2)c1NC(=O)c1cc(Br)nn1-c1ncccc1Cl [Example I-1-5]	3.13			good activity					good activity	100%	83%				activity in the Diabrotica undecimpunctata test (in words) [10]: good activity; Kill rate after 2-5d in % ([10]; 300 ppm, 2-5 d, eggs): 100%
Cc1cc(Br)cc(C2=NOCCO2)c1NC(=O)c1cc(C(F)(F)F)nn1-c1ncccc1Cl [Example I-1-11]	3.58	98%		good activity	good activity	good activity	good activity	good activity	good activity	100%	100%				activity in the Spodoptera frugiperda test, watering (in words) [1]: good activity; Kill rate after 7d in % ([4]; 20 ppm): 80%; Kill rate after 7d in % ([5]; 20 ppm): 100%; Kill rate after 7d in % ([6]; 20 ppm): 80%; Kill rate after 7d in % ([7]; 20 ppm): 100%
Cc1cccc(C2=NOCCN2)c1NC(=O)c1cc(Cl)nn1-c1ncccc1Cl [Example I-1-17]	1.65	98%		good activity	good activity	good activity	good activity	good activity	good activity	100%		good activity	100%		Kill rate after 7d in % ([4]; 4 ppm): 100%; Kill rate after 7d in % ([5]; 4 ppm): 100%; Kill rate after 7d in % ([6]; 4 ppm): 100%; Kill rate after 7d in % ([7]; 4 ppm): 100%
Cc1cc(I)cc(C2=NOCCN2)c1NC(=O)c1cc(Br)cn1-c1ncccc1Cl [Example I-1-22]	2.39		good activity	good activity					good activity	100%	100%	good activity	100%	100%	

More lines, main results first:

logP [9]	Structure (SMILES)	Kill rate after 14d in % [1]	activity in the Myzus test, oral (in words) [2]	activity in the Spodoptera frugiperda test, spray treatment (in words) [3]	activity in the Plutella test (in words) [4]	activity in the Spodoptera exigua test (in words) [5]	activity in the Spodoptera exigua test, resistant strain (in words) [6]	activity in the Heliothis armigera test (in words) [7]	activity in the Phaedon test (in words) [8]	Kill rate after 7d in % ([3]; 100 g/ha)	Kill rate after 7d in % ([8]; 100 g/ha)	activity in the Myzus test, spray treatment (in words) [11]	Kill rate after 5d in % [11]	Kill rate after 5d in % [2]	also measured
2.21	Cc1cc(I)cc(C2=NOCCN2)c1NC(=O)c1cc(Br)nn1-c1ncccc1Cl [Example I-1-23]		good activity	good activity					good activity	100%	100%	good activity	90%	100%	
2.66	Cc1cc(I)cc(C2=NOCCN2)c1NC(=O)c1cc(C(F)(F)F)nn1-c1ncccc1Cl [Example I-1-24]		good activity	good activity					good activity	100%	100%	good activity	90%	100%	
